We go through 2 compounds from patent USRE43748E1, “Nitrogen-containing heterocyclic carboxamide derivatives or salts thereof and antiviral agents comprising the same” (priority 1998, dated 2012).

Experiment [1] relates to Vero cell (monkey kidney cell). In words: Cytotoxic activity, XTT method. The format is cell-based. The settings on record: Primates, 96 h, Vero cells, cultured 4 days, read-out: 50% cell growth inhibitory concentration (IC50). For orientation: Tetrazolium assays rely on reduction of a dye to a coloured formazan, in cell work by metabolically active cells.
Experiment [2] has as its system rhino virus typeII strain. As to the kind of experiment: Anti-rhino activity, plaque inhibition in HeLa cells. The format is cell-based. Particulars: 72 h, plaque number, 30 μg/ml of compound, 3 days at 33° C., read-out: Inhibition percent (%).

Structures are written as SMILES.

As to `NC(=O)c1nccnc1O` [No. 1, 3-hydroxy-2-pyrazinecarboxamide], the IC50 in experiment [1] was not below 250 µg/mL.

What is called inhibition is how much of the control response was suppressed. With `CC(=O)NC(=O)c1nccnc1O` [No. 3, N^2-acetyl-3-hydroxy-2-pyrazinecarboxamide], in experiment [2], the inhibition at 30 µg/mL worked out at 47.2%.
